How the values were obtained:
Type in all cases: biochemical
recombinant human TrxR1 [1] = target: T1, recombinant human TrxR1 (Homo sapiens, UniProt Q16881); assay: In vitro TrxR1 activity assay (DTNB reduction)
T1 construct: purchased Abcam ab204206
T1 sequence (Q16881 1-499 isoform Q16881-5): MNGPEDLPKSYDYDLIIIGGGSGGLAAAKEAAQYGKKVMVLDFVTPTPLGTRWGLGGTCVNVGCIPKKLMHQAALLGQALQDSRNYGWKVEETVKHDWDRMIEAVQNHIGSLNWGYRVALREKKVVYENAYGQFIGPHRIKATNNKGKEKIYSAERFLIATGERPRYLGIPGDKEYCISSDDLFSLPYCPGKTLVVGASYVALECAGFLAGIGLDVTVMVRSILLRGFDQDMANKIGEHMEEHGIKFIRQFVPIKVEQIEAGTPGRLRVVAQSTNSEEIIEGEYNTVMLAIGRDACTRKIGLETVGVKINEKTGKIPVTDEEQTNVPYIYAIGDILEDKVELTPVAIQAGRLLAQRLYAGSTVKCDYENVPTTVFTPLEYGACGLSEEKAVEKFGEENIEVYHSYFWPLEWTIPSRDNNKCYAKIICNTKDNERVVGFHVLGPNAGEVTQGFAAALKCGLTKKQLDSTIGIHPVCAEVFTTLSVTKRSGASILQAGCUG
Method: (§1) The in vitro TrxR1 activity assay was performed using the DTNB reduction assay. Briefly, 0.1 μM recombinant human TrxR1 or TrxR1 without Sec498 residue (TrxR1 nSec) protein was reduced with 100 μM NADPH in assay buffer (50 mM Tris-HCl, 1 mM EDTA, pH = 7.5) for 30 min at room temperature. The reduced proteins was then treated with the indicated concentrations of PepE (final concentrations of 0.25, 0.5, 1, 2, 4, 6 μM), respectively, and incubated for 1 h at 37 °C. A mixture of assay buffer solution (50 mM Tris-HCl, 1 mM EDTA, pH = 7.5) containing DTNB and NADPH was added then added, making the final concentrations of DTNB and NADPH 2 mM and 200 μM, respectively. The absorbance was monitored at 412 nm using the SpectraMax i3x microplate reader (Molecular Devices). The linear increase of absorbance during the initial 3 min was recorded for calculating the relative enzyme activity. The same amount of DMSO was added to the control experiments and the activity is expressed as the percentage of the control.

[2] = target: T2, TrxR1 without Sec498 residue (TrxR1 nSec) (Homo sapiens, UniProt Q16881); assay: In vitro TrxR1 activity assay (DTNB reduction), Sec-missing enzyme; details: Sec-missing enzyme 0.1 μM
T2 construct: protein fragment, without selenocysteine residue; purchased Abcam ab168011
T2 sequence (Q16881 1-497 isoform Q16881-5): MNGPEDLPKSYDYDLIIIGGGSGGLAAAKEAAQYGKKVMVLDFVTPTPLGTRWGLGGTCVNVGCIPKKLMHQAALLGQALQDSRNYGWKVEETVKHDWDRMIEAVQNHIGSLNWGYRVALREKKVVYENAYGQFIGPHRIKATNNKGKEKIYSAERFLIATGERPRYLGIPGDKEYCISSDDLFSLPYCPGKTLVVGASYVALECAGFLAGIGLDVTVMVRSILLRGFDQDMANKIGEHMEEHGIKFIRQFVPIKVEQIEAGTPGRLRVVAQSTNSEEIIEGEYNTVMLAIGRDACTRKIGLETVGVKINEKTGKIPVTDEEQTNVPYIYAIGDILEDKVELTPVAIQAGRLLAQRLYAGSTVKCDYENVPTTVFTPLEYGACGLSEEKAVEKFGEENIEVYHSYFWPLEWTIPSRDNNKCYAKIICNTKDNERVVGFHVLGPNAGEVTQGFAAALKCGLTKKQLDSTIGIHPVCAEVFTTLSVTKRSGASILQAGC
Method: as §1

recombinant human TrxR1 [3] = target: T1, recombinant human TrxR1; assay: NADPH oxidative activity assay; details: 5 μM, TrxR1 0.2 μM
Method: The NADPH oxidative activity by TrxR1 in the presence of PepE was performed according to the previous reports. Briefly, the recombinant human TrxR1 protein (0.2 μM) was incubated with either 5 μM of PepE or 5 μM of DNCB at room temperature in assay buffer (50 mM Tris-HCl, 1 mM EDTA, pH = 7.5), same amount of DMSO was used as negative control. NADPH was then added (final concentration was set at 200 μM) and the absorbance was monitored at 340 nm for 30 min using the SpectraMax i3x microplate reader (Molecular Devices), the molar extinction coefficient was set as 6200 M^−1cm^−1. The linear decrease in NADPH absorbance was used for calculating NADPH consumption rate and expressed as NADPH μM^−1min^−1enzyme μM^−1.

Structure (SMILES): C=C1C(=O)OC[C@H]1C(c1cc(OC)c2c(c1)OCO2)c1cc(OC)c2c(c1)OCO2 [PepE, Peperomin E]
- IC50 (recombinant human TrxR1 [1]; DTNB reduction assay, NADPH-reduced TrxR1 0.1 μM, 1 h at 37 °C): 0.94 µM
- reversibility of TrxR1 inhibition (recombinant human TrxR1 [1]; removal of PepE by Sephadex G-25 desalting column did not recover activity (data not shown)): irreversibly
- IC50 [2]: > 8 µM
- consumption of NADPH by TrxR1 relative to the control (recombinant human TrxR1 [3]): ~7 fold

From PMC6434189, “Peperomin E and its orally bioavailable analog induce oxidative stress-mediated apoptosis of acute myeloid leukemia progenitor cells by targeting thioredoxin reductase” (Redox Biology, 2019)
